The source of these data is PubChem BioAssay (NCI).

Test systems include IGROV1 ovarian; HOP-92 NSCLC; COLO 205 colon; UO-31 renal; NCI-H226 lung; M14 melanoma; NCI/ADR-RES ovarian; SNB-75 CNS; SF-539 CNS; RXF 393 renal; TK-10 renal; SK-MEL-5 melanoma; MCF7 breast; HL-60(TB) leukemia; UACC-62 melanoma; SK-MEL-28 melanoma; HOP-62 NSCLC; OVCAR-3 ovarian.
Assay in all cases: NCI tumour cell line growth inhibition, 48 h

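Interpolation was linear, between the two tested concentrations surrounding the appropriate level; five concentrations were tested over 48 hours in 96-well plates. The concentration for full growth arrest is given as TGI.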 Where only a bound is given, the exact number is not on record here.

`CC(C(=O)NCNC(=O)c1ccccc1)C(=O)Nc1ccccc1` (stereo not given): the TGI with IGROV1 ovarian, in the assay on HOP-92 NSCLC, in the assay with COLO 205 colon, in the assay with UO-31 renal, with NCI-H226 lung and in the assay on M14 melanoma was over 100 µM in each case. The TGI in the assay on NCI/ADR-RES ovarian, with SNB-75 CNS, in the assay with SF-539 CNS, in the assay on RXF 393 renal, in the assay with TK-10 renal and in the assay on SK-MEL-5 melanoma was over 100 µM in each case. Besides, the TGI in the assay on MCF7 breast, with HL-60(TB) leukemia and with UACC-62 melanoma was over 100 µM in each case.
Consider `COc1ccc2c(=O)c3ccoc3[nH]c2c1`, for which the TGI in the assay on IGROV1 ovarian, in the assay on HOP-92 NSCLC, with COLO 205 colon, in the assay with UO-31 renal, with NCI-H226 lung and in the assay on M14 melanoma was over 100 µM in each case. Further, the TGI with NCI/ADR-RES ovarian, in the assay with SK-MEL-28 melanoma, in the assay with SNB-75 CNS, in the assay with SF-539 CNS, with HOP-62 NSCLC and in the assay on RXF 393 renal was over 100 µM in each case. For the same compound, the TGI in the assay with TK-10 renal, in the assay on SK-MEL-5 melanoma, with MCF7 breast, with HL-60(TB) leukemia and in the assay with UACC-62 melanoma was over 100 µM each time.
For the compound `Cc1cc(C)n(-c2nc(-n3nc(C)cc3C)nc(-n3nc(C)cc3C)n2)n1`, the TGI in the assay with IGROV1 ovarian, in the assay with HOP-92 NSCLC, in the assay with COLO 205 colon, in the assay with UO-31 renal, in the assay with NCI-H226 lung and in the assay on M14 melanoma was over 100 µM throughout. Also, the TGI was over 100 µM in the assay on NCI/ADR-RES ovarian; over 100 µM in the assay with SK-MEL-28 melanoma; over 100 µM with SF-539 CNS; over 100 µM with HOP-62 NSCLC; over 100 µM in the assay with RXF 393 renal; 86.5 µM in the assay on TK-10 renal. Further, the TGI with SK-MEL-5 melanoma, in the assay with MCF7 breast, with HL-60(TB) leukemia, with UACC-62 melanoma and in the assay with OVCAR-3 ovarian was over 100 µM each time.
Take `CSc1nc(-c2ccccc2)[nH]c(=O)n1`: the TGI with IGROV1 ovarian, with HOP-92 NSCLC, in the assay on COLO 205 colon, in the assay with UO-31 renal, in the assay with NCI-H226 lung and with M14 melanoma was over 100 µM throughout. The TGI with NCI/ADR-RES ovarian, in the assay with SK-MEL-28 melanoma, in the assay with SF-539 CNS, in the assay on HOP-62 NSCLC, in the assay with RXF 393 renal and with TK-10 renal was over 100 µM in each case. Also, the TGI in the assay with SK-MEL-5 melanoma, in the assay with MCF7 breast, in the assay on HL-60(TB) leukemia, in the assay on UACC-62 melanoma and in the assay on OVCAR-3 ovarian was over 100 µM in each case.
Regarding `CCOC(=O)C(=[N+]=[N-])C(=O)CSC#N`, the TGI in the assay with IGROV1 ovarian, in the assay on COLO 205 colon, in the assay on UO-31 renal, in the assay with NCI-H226 lung, in the assay on M14 melanoma and in the assay on NCI/ADR-RES ovarian was over 100 µM each time. Also, the TGI with SK-MEL-28 melanoma was over 100 µM; in the assay on SF-539 CNS it was 47.1 µM; in the assay on HOP-62 NSCLC, over 100 µM; with RXF 393 renal, over 100 µM; in the assay with TK-10 renal, over 100 µM; in the assay on SK-MEL-5 melanoma it was over 100 µM. Besides, the TGI with MCF7 breast, in the assay with HL-60(TB) leukemia and in the assay with UACC-62 melanoma was over 100 µM in each case.
For `Cc1nc2ccc(Cl)cc2c2c1CCN2c1ccc(F)cc1`, the TGI with IGROV1 ovarian is 72.7 µM; in the assay on COLO 205 colon it was 56.5 µM; in the assay on UO-31 renal it was over 100 µM; in the assay with NCI-H226 lung, 88.8 µM; in the assay with M14 melanoma, 51.7 µM; in the assay with NCI/ADR-RES ovarian, over 100 µM. For the same compound, the TGI in the assay on SK-MEL-28 melanoma is 75.7 µM; in the assay with SNB-75 CNS it was 9.13 µM; with SF-539 CNS, 54.8 µM; with HOP-62 NSCLC it was over 100 µM; with RXF 393 renal, 93.3 µM; in the assay with TK-10 renal, over 100 µM. The TGI in the assay with SK-MEL-5 melanoma was 21.6 µM; in the assay on MCF7 breast, 59.1 µM; in the assay on HL-60(TB) leukemia it was 35.3 µM; with UACC-62 melanoma, 87.4 µM; in the assay on OVCAR-3 ovarian, over 100 µM.
On to `COc1ccccc1NC1Oc2cc3c(cc2C(c2cc(OC)c(OC)c(OC)c2)C1C)OCO3` (stereo not given), for which the TGI in the assay with IGROV1 ovarian is over 100 µM; in the assay with HOP-92 NSCLC, over 22.8 µM; in the assay with COLO 205 colon, 5.79 µM; with UO-31 renal it was 43.8 µM; with NCI-H226 lung, 9.92 µM; in the assay with M14 melanoma, over 100 µM. Besides, the TGI in the assay on NCI/ADR-RES ovarian was over 33.1 µM; with SK-MEL-28 melanoma it was over 100 µM; in the assay with SNB-75 CNS, 16.7 µM; in the assay with SF-539 CNS it was 5.24 µM; in the assay with HOP-62 NSCLC it was over 51.1 µM; in the assay on RXF 393 renal it was 7.62 µM. The TGI with TK-10 renal was over 100 µM; with SK-MEL-5 melanoma, 16.8 µM; in the assay on MCF7 breast, over 100 µM; in the assay with HL-60(TB) leukemia, 3.36 µM; in the assay with UACC-62 melanoma, over 60.9 µM.
With `Oc1ccc(Br)cc1C=Nc1c(NC2CCCCC2)oc2ccc(Br)cc12`, the TGI in the assay with IGROV1 ovarian was over 100 µM; in the assay with UO-31 renal, over 100 µM; in the assay on NCI-H226 lung it was over 100 µM; in the assay on NCI/ADR-RES ovarian, over 100 µM; in the assay on SK-MEL-28 melanoma it was over 100 µM; in the assay on SNB-75 CNS it was 79.5 µM. Moreover, the TGI in the assay on SF-539 CNS is over 100 µM; in the assay on HOP-62 NSCLC, over 100 µM; in the assay with RXF 393 renal it was 27.1 µM; with TK-10 renal, over 100 µM; with SK-MEL-5 melanoma it was over 100 µM; in the assay on MCF7 breast it was 83.2 µM. Also, the TGI with HL-60(TB) leukemia is 21.8 µM; with UACC-62 melanoma, over 100 µM; in the assay with OVCAR-3 ovarian, 68.6 µM.
